Patent publication US10881729B2, “Vaccine adjuvant compositions” (CHILDREN'S MEDICAL CENTER CORPORATION, priority 2014, dated 2021)

Experiments:
[1] = cited from earlier work
newborn MoDCs = test: TNF-α ELISA of supernatants of stimulated newborn MoDCs; format: cell-based, human; details: for TNF production in response to single TLR agonist, newborn compared to adult MoDCs: newborn vs adult MoDCs, FIG. 2
Protocol: Isolated monocytes were seeded in 75 cm^2 tissue culture dishes for 5 days at 37° C. in a humidified incubator at 5% CO2 with 10^6 cells/ml medium. Medium consisted of RPMI 1640 medium with L-glutamine (GIBCO—LIFE TECHNOLOGIES, Carlsbad, Calif., USA) supplemented with 1% Penicillin-Streptomycin-Glutamine (PSG) (Invitrogen—Life Technologies, Carlsbad, Calif., USA) and 10% AP. This was supplemented with recombinant human (rh) IL-4 and rhGM-CSF (50 ng/ml and 100 ng/ml, respectively; R&D Systems, Minneapolis, Minn., USA). Additional fresh media and cytokines were provided on day 3 of incubation.
After 5 days, immature MoDCs were harvested by gently pipetting only the loosely adherent fraction and re-plated (10^5 cells/well) in 96-well U-bottom plates in the presence or absence of TLRAs, and/or CLRAs, and/or sterile DPBS. This MoDC array was then incubated for 18-24 hours at 37° C. in a humidified incubator at 5% CO2. After this stimulation MoDCs were harvested and processed for further functional assays. (FIG. 2).
Supernatants from MoDCs (GCI-DCs) stimulated for 18 hours in a humidified incubator (37° C., 5% CO2) with TLRAs, and/or CLRAs were analyzed for TNF-α production. For this, a human TNF enzyme-linked immunosorbent assay (ELISA) kit was used, and assay was performed according to manufacturer's instruction. (BD Biosciences, BD Biosciences, San Jose, Calif., USA). Results were read on a Versamax microplate reader with SoftMax Pro Version 5 (both from Molecular Devices, Sunnyville, Calif., USA).
The inventors further evaluated the ability of these two combinations of agonists to activate newborn MoDCs by establishing concentration-response curves and by investigating whether the enhancement in TNF secretion can be observed with similar agonists that activate the same receptors. In addition, the concentration-response curves were used to mathematically assess whether the observed enhancement by combining agonists is equal to the sum of the effects observed with individual agonists (i.e., was additive) or if these agonists activate the newborn cells synergistically. A modification of the Loewe definition of additivity was applied to determine whether the agonists act synergistically (D<1), additively (D=1) or antagonistically (D>1), where D=[Ac]/[Ae]+[Bc]/[Be], and [Ac] and [Bc] are the concentrations of compound A and B used in the dual (combined) stimulation and [Ae] and [Be] are the concentrations of A and B that induce an equal amount of TNF secretion alone.

newborn and adult MoDCs = test: Gene expression by quantitative RT-PCR array, MPLA-stimulated newborn versus adult MoDCs; format: cell-based, human
Protocol: Total ribonucleic acid (RNA) of newborn and adult MoDCs (GCI-DCs and TC-DCs) was isolated with the miRNeasy kit, according to manufacturer's instructions (QIAGEN®, Inc., Valencia, Calif., USA) Total RNA from both un-stimulated cells and cells stimulated with 1 μg/ml MPLA was isolated. RNA quality was analyzed for quality and quantity by using a NanoDrop 1000 spectrophotometer (Thermo Scientific, Wilmington, Del., USA). Complementary deoxyribonucleic acid (cDNA) was prepared from total RNA from each sample with a miScript II RT Kit, according to manufacturer's instructions (QIAGEN®, Inc., Valencia, Calif., USA). cDNA was quantified on a PAHS-052Z plate (QIAGEN®, Inc., Valencia, Calif., USA). Quantitative real time-polymerase chain reaction (RT-PCR) was run on a 7300 real time PCR system (APPLIED BIOSYSTEMS®—Life Technologies, Life Technologies, Carlsbad, Calif., USA).

CCOCc1nc2c(N)nc3ccccc3c2[nH]1 [CL097, 2-(ethoxymethyl)-1 H-imidazo[4,5-c]quinolin-4-amine]
water solubility [1]: highly water-soluble

Pam3Cys
TNF production in response to single TLR agonist, newborn compared to adult MoDCs (newborn MoDCs): less TNF

Polyinosinic:polycytidylic acid [Poly I:C]
TNF production in response to single TLR agonist, newborn compared to adult MoDCs (newborn MoDCs): less TNF

glycopyranosyl lipid A [GLA]
synergy in TNF production with the partner agonist named in the sentence (newborn MoDCs; newborn MoDCs, VTX-294 for R848 (with TDB), GLA for MPLA (with Zymosan), BGP for Zymosan, Zymosan with MPLA or GLA): also present

monophosphoryl lipid A [MPLA]
TNF production in response to single TLR agonist, newborn compared to adult MoDCs (newborn MoDCs): less TNF
TNF gene expression, adults compared to newborns (newborn and adult MoDCs; MPLA 1 μg/ml, 24 hours): 2 fold
IL-6 and IL-10, newborn MoDCs compared to adult MoDCs (newborn and adult MoDCs; MPLA treatment, FIG. 1): more
expression levels of IRF7 and IRAK1, adult MoDCs compared to newborn (newborn and adult MoDCs; MPLA treatment, FIG. 1): higher
IL6 and CXCL-8 (IL8) gene expression, newborn MoDCs compared to adult MoDCs (newborn and adult MoDCs; after treatment with MPLA): greater
expression of IRF7, IRAK1 and NFKB1, adult MoDCs compared to newborn (newborn and adult MoDCs; after treatment with MPLA): greater
